Laboratory results reported in ChEMBL document CHEMBL4811295, “The ester derivatives obtained by C-ring modification of podophyllotoxin induce apoptosis and inhibited proliferation in PC-3M cells via down-regulation of PI3K/Akt signaling pathway” (Bioorg Med Chem Lett, 2021).
Active and inactive are the calls of the source. The rule behind the calls is not given here.

Legend:
PC-3M [1] = assay: Cytotoxicity in human PC-3M cells assessed as inhibition of cell proliferation measured by CCK-8 assay; type: functional, cell-based
HepG2 = assay: Cytotoxicity in human HepG2 cells assessed as inhibition of cell proliferation measured by CCK-8 assay; type: functional, cell-based
HMEC = assay: Cytotoxicity in human HMEC cells assessed as inhibition of cell proliferation measured by CCK-8 assay; type: functional, cell-based
A549 = assay: Cytotoxicity in human A549 cells assessed as inhibition of cell proliferation measured by CCK-8 assay; type: functional, cell-based
MCF7 = assay: Cytotoxicity in human MCF7 cells assessed as inhibition of cell proliferation measured by CCK-8 assay; type: functional, cell-based
PC-3M [2] = assay: Induction of apoptosis in human PC-3M cells assessed as late apoptotic cells at 1 nM measured after 48 hrs by Annexin V/PI staining based flow cytometry method (reference value: 2.88%); type: functional
PC-3M [3] = assay: Induction of apoptosis in human PC-3M cells assessed as late apoptotic cells at 10 nM measured after 48 hrs by Annexin V/PI staining based flow cytometry method (reference value: 2.88%); type: functional
PC-3M [4] = assay: Induction of apoptosis in human PC-3M cells assessed as viable cells at 5 nM measured after 48 hrs by Annexin V/PI staining based flow cytometry method (reference value: 95.6%); type: functional; conditions: read-out: Activity
PC-3M [5] = assay: Induction of apoptosis in human PC-3M cells assessed as necrotic cells at 10 nM measured after 48 hrs by Annexin V/PI staining based flow cytometry method (reference value: 0.25%); type: functional
PC-3M [6] = assay: Antiproliferative activity against human PC-3M cells assessed as inhibition of cell proliferation at 1 nM measured after 9 days by Crystal violet staining based colony formation assay; type: functional; conditions: time 9.0 day
PC-3M [7] = assay: Induction of apoptosis in human PC-3M cells assessed as viable cells at 1 nM measured after 48 hrs by Annexin V/PI staining based flow cytometry method (reference value: 95.6%); type: functional; conditions: read-out: Activity
PC-3M [8] = assay: Induction of apoptosis in human PC-3M cells assessed as viable cells at 10 nM measured after 48 hrs by Annexin V/PI staining based flow cytometry method (reference value: 95.6%); type: functional; conditions: read-out: Activity
PC-3M [9] = assay: Induction of apoptosis in human PC-3M cells assessed as early apoptotic cells at 10 nM measured after 48 hrs by Annexin V/PI staining based flow cytometry method (reference value: 1.25%); type: functional
PC-3M [10] = assay: Induction of apoptosis in human PC-3M cells assessed as early apoptotic cells at 1 nM measured after 48 hrs by Annexin V/PI staining based flow cytometry method (reference value: 1.25%); type: functional
PC-3M [11] = assay: Induction of apoptosis in human PC-3M cells assessed as early apoptotic cells at 5 nM measured after 48 hrs by Annexin V/PI staining based flow cytometry method (reference value: 1.25%); type: functional
PC-3M [12] = assay: Induction of apoptosis in human PC-3M cells assessed as necrotic cells at 5 nM measured after 48 hrs by Annexin V/PI staining based flow cytometry method (reference value: 0.25%); type: functional
PC-3M [13] = assay: Induction of apoptosis in human PC-3M cells assessed as late apoptotic cells at 5 nM measured after 48 hrs by Annexin V/PI staining based flow cytometry method (reference value: 2.88%); type: functional
PC-3M [14] = assay: Induction of apoptosis in human PC-3M cells assessed as necrotic cells at 1 nM measured after 48 hrs by Annexin V/PI staining based flow cytometry method (reference value: 0.25%); type: functional
PC-3M [15] = assay: Induction of apoptosis in human PC-3M cells assessed by formation of chromatin fragments at 10 nM measured after 48 hrs by DAPI staining based microscopic method; type: functional, cell-based
PC-3M [16] = assay: Induction of apoptosis in human PC-3M cells assessed as decrease of Bcl-2 expression at 1 to 10 nM measured by western blot assay; type: functional, cell-based; conditions: dose 1-10 nM
PC-3M [17] = assay: Anti-migration activity in human PC-3M cells measured after 24 hrs by microscopy based wound scratch method; type: functional, cell-based; conditions: dose 1-10 nM
PC-3M [18] = assay: Inhibition of PI3K in human PC-3M cells assessed as reduction of phosphorylated PI3K expression at 1 to 10 nM measured by western blot assay; type: cell-based; conditions: dose 1-10 nM
PC-3M [19] = assay: Induction of apoptosis in human PC-3M cells assessed by broken nucleus at 10 nM measured after 48 hrs by DAPI staining based microscopic method; type: functional, cell-based
PC-3M [20] = assay: Induction of apoptosis in human PC-3M cells assessed by irregular nucleus at 10 nM measured after 48 hrs by DAPI staining based microscopic method; type: functional, cell-based
PC-3M [21] = assay: Induction of apoptosis in human PC-3M cells assessed by formation of apoptotic bodies at 10 nM measured after 48 hrs by DAPI staining based microscopic method; type: functional, cell-based
PC-3M [22] = assay: Antiproliferative activity against human PC-3M cells assessed as inhibition of cell proliferation measured after 9 days by Crystal violet staining based colony formation assay; type: functional; conditions: dose 5-10 nM, time 9.0 day
PC-3M [23] = assay: Induction of apoptosis in human PC-3M cells assessed by apoptotic changes in cells at 1 uM measured after 48 hrs by DAPI staining based microscopic method relative to PPT; type: functional, cell-based
PC-3M [24] = assay: Induction of apoptosis in human PC-3M cells assessed as increase of Bax expression at 1 to 10 nM measured by western blot assay; type: functional, cell-based; conditions: dose 1-10 nM
[25] = molecular target: RAC-alpha serine/threonine-protein kinase (Homo sapiens) (UniProt P31749); assay: Inhibition of Akt in human PC-3M cells assessed as reduction of […] expression at 1 to 10 nM measured by western blot assay; type: cell-based; conditions: dose 1-10 nM
PC-3M [26] = assay: Induction of apoptosis in human PC-3M cells assessed as increase of cleaved caspase-3 expression at 1 to 10 nM measured by western blot assay; type: functional, cell-based; conditions: dose 1-10 nM

Chain of RAC-alpha serine/threonine-protein kinase (Homo sapiens) (P31749 whole entry): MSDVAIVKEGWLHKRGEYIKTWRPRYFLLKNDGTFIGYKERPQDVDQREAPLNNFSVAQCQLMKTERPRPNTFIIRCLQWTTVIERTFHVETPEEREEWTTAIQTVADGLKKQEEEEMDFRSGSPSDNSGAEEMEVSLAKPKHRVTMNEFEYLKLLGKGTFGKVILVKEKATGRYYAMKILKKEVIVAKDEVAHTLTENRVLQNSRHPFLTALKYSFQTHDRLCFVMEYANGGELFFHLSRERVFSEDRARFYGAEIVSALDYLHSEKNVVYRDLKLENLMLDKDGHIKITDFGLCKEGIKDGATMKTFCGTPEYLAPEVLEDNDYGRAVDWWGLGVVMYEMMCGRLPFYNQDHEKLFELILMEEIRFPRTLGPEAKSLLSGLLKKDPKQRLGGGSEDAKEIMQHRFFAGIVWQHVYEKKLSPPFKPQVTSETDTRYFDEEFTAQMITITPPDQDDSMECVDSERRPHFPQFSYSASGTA

Work on `CCCCCCCCCCCCCC(=O)O[C@H]1c2cc3c(cc2[C@@H](c2cc(OC)c(OC)c(OC)c2)[C@H]2C(=O)OC[C@@H]21)OCO3` yielded an IC50 (PC-3M [1]) of 1720 nM, an IC50 (HepG2) of 88700 nM and an IC50 (HMEC) of 2750 nM. The IC50 (A549) was 1070 nM and the IC50 (MCF7) was over 200000 nM.
`COc1cc([C@@H]2c3cc4c(cc3[C@H](O)[C@H]3COC(=O)[C@H]23)OCO4)cc(OC)c1OC` [PODOFILOX] was tested, and the Activity (PC-3M [2]) was 3.78%, the Activity (PC-3M [3]) was 20.9% and the viability at 0.005 µM (PC-3M [4]) was 87.6%. It also gave an Activity (PC-3M [5]) of 0.11%, an IC50 (PC-3M [1]) of 235 nM and an IC50 (HepG2) of over 200000 nM. The Activity (PC-3M [6]) was “inactive”, the IC50 (HMEC) was 1340 nM and the IC50 (A549) was 5.37 nM. It also gave a viability at 0.001 µM (PC-3M [7]) of 94.4%, a viability at 0.01 µM (PC-3M [8]) of 75.7% and an Activity (PC-3M [9]) of 3.31%. For the same molecule, the IC50 (MCF7) was over 200000 nM, the Activity (PC-3M [10]) was 1.71% and the Activity (PC-3M [11]) was 3.17%. For the same molecule, the Activity (PC-3M [12]) was 0.17%, the Activity (PC-3M [13]) was 9.11% and the Activity (PC-3M [14]) was 0.083%.
Work on `CCCCCCCCCCCC(=O)O[C@H]1c2cc3c(cc2[C@@H](c2cc(OC)c(OC)c(OC)c2)[C@H]2C(=O)OC[C@@H]21)OCO3` yielded an IC50 (PC-3M [1]) of 1250 nM, an IC50 (HepG2) of 53100 nM and an IC50 (HMEC) of 936 nM. The IC50 (A549) was 539 nM and the IC50 (MCF7) was over 200000 nM.
`COc1cc([C@@H]2c3cc4c(cc3[C@H](OC(=O)c3sccc3Cl)[C@H]3COC(=O)[C@H]23)OCO4)cc(OC)c1OC` gave an IC50 (PC-3M [1]) of 965 nM, an IC50 (HepG2) of 149000 nM and an IC50 (HMEC) of 116 nM. It also gave an IC50 (A549) of 155 nM and an IC50 (MCF7) of over 200000 nM.
`COc1cc([C@@H]2c3cc4c(cc3[C@H](OC(=O)c3cccs3)[C@H]3COC(=O)[C@H]23)OCO4)cc(OC)c1OC` showed an IC50 (PC-3M [1]) of 770 nM, an IC50 (HepG2) of 26900 nM and an IC50 (HMEC) of 672 nM. For the same molecule, the IC50 (A549) was 68.4 nM and the IC50 (MCF7) was 26500 nM.
For `COc1cc([C@@H]2c3cc4c(cc3[C@H](OC(=O)[C@@H]3CCCN3C(=O)OC(C)(C)C)[C@H]3COC(=O)[C@H]23)OCO4)cc(OC)c1OC`, the IC50 (PC-3M [1]) was 1720 nM, the IC50 (HepG2) was 50800 nM and the IC50 (HMEC) was 3230 nM. The IC50 (A549) was 600 nM and the IC50 (MCF7) was 124000 nM.
`CCCCCCCCCCCCCCCCCC(=O)O[C@H]1c2cc3c(cc2[C@@H](c2cc(OC)c(OC)c(OC)c2)[C@H]2C(=O)OC[C@@H]21)OCO3` showed an IC50 (PC-3M [1]) of 2600 nM, an IC50 (HepG2) of 141000 nM and an IC50 (HMEC) of 3070 nM. The IC50 (A549) was 7320 nM and the IC50 (MCF7) was over 200000 nM.
Work on `COc1cc([C@@H]2c3cc4c(cc3[C@H](OC(=O)[C@@H](NC(=O)OC(C)(C)C)C(C)C)[C@H]3COC(=O)[C@H]23)OCO4)cc(OC)c1OC` yielded an IC50 (PC-3M [1]) of 2520 nM, an IC50 (HepG2) of 10900 nM and an IC50 (HMEC) of 2440 nM. It also gave an IC50 (A549) of 11200 nM and an IC50 (MCF7) of 89100 nM.
For `COc1cc([C@@H]2c3cc4c(cc3[C@H](OC(=O)CNC(=O)OC(C)(C)C)[C@H]3COC(=O)[C@H]23)OCO4)cc(OC)c1OC`, the Activity (PC-3M [15]) was “Dose-Dependent Effect”, the Activity (PC-3M [2]) was 5.53% and the Activity (PC-3M [16]) was “Dose-Dependent Effect”. For the same molecule, the Activity (PC-3M [3]) was 29.9%, the viability at 0.005 µM (PC-3M [4]) was 83.4% and the Activity (PC-3M [5]) was 0.21%. For the same molecule, the IC50 (PC-3M [1]) was 1.28 nM, the IC50 (HepG2) was 50700 nM and the Activity (PC-3M [17]) was “Dose-Dependent Effect”. The inhibition (PC-3M [18]) was “Active”, the Activity (PC-3M [19]) was “Dose-Dependent Effect” and the Activity (PC-3M [20]) was “Dose-Dependent Effect”. For the same molecule, the Activity (PC-3M [21]) was “Dose-Dependent Effect”, the IC50 (HMEC) was 768 nM and the IC50 (A549) was 9.54 nM. The Activity (PC-3M [22]) was “Dose-Dependent Effect”, the Activity (PC-3M [23]) was “Active” and the Activity (PC-3M [24]) was “Dose-Dependent Effect”. For the same molecule, the viability at 0.001 µM (PC-3M [7]) was 92.5%, the viability at 0.01 µM (PC-3M [8]) was 64.4% and the Activity (PC-3M [9]) was 5.41%. For the same molecule, the IC50 (MCF7) was 144000 nM, the Activity (PC-3M [10]) was 1.86% and the inhibition [25] was “Active”. The Activity (PC-3M [11]) was 3.74%, the Activity (PC-3M [26]) was “Dose-Dependent Effect” and the Activity (PC-3M [12]) was 0.11%. The Activity (PC-3M [13]) was 12.7% and the Activity (PC-3M [14]) was 0.14%.
Work on `CC[C@H](C)[C@H](NC(=O)OC(C)(C)C)C(=O)O[C@H]1c2cc3c(cc2[C@@H](c2cc(OC)c(OC)c(OC)c2)[C@H]2C(=O)OC[C@@H]21)OCO3` yielded an IC50 (PC-3M [1]) of 1070 nM, an IC50 (HepG2) of 866 nM and an IC50 (HMEC) of 4480 nM. The IC50 (A549) was 7960 nM and the IC50 (MCF7) was 69900 nM.
In the case of `COc1cc([C@@H]2c3cc4c(cc3[C@H](OC(=O)[C@H](C)NC(=O)OC(C)(C)C)[C@H]3COC(=O)[C@H]23)OCO4)cc(OC)c1OC`, the IC50 (PC-3M [1]) is reported as 1170 nM, the IC50 (HepG2) is reported as 84900 nM and the IC50 (HMEC) is reported as 8420 nM. For the same molecule, the IC50 (A549) was 28.4 nM and the IC50 (MCF7) was 40700 nM.
